Laboratory results as given in ChEMBL document CHEMBL1135513 (J Med Chem, 2002).

Key:
[1] = molecular target: T1, GABA-A receptor; alpha-1/beta-2/gamma-2 (Homo sapiens, UniProt P14867+P18507+P47870); assay: Potentiation of GABA responses at human Gamma-aminobutyric acid A receptor alpha-1-beta-2-gamma-2; type: protein-complex assay
T1 sequence (P14867 whole entry): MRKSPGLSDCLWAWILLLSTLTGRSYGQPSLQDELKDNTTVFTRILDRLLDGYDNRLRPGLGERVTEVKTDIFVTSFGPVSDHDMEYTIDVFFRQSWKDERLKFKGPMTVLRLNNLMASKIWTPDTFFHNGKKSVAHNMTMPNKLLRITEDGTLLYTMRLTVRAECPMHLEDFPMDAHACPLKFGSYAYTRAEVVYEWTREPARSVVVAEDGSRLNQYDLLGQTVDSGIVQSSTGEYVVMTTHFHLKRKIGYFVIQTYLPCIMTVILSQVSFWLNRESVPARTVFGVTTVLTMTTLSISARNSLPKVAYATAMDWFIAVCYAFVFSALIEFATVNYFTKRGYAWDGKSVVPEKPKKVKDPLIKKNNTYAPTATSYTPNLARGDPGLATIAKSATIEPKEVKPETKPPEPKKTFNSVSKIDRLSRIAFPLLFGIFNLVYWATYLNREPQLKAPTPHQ
T1 sequence (P47870 whole entry): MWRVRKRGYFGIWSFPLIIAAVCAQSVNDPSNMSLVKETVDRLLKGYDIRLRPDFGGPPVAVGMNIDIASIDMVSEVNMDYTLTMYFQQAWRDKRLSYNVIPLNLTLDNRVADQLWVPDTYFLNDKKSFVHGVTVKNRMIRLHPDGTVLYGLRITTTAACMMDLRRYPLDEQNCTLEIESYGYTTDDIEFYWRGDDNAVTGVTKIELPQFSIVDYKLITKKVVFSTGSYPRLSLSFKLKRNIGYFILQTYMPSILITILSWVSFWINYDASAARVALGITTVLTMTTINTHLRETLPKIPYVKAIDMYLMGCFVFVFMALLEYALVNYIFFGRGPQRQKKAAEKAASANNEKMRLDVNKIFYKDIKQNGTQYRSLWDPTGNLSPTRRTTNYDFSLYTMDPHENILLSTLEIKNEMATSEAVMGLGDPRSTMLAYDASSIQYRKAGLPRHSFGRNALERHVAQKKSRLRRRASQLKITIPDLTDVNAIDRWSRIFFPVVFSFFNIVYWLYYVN
T1 sequence (P18507 whole entry): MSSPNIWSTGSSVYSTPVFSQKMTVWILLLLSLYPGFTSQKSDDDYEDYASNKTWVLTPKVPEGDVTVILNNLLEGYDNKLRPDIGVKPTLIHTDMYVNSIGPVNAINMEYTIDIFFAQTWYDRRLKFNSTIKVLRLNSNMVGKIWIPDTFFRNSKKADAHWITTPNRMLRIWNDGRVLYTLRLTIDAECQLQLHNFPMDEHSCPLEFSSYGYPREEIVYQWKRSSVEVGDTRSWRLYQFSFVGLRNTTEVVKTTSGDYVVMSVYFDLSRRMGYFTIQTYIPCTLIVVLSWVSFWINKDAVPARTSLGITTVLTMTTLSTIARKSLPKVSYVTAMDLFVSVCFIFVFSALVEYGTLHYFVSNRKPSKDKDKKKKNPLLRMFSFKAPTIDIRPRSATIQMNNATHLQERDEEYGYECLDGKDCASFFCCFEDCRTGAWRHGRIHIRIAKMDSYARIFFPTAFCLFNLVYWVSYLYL

[2] = system: Xenopus laevis; assay: Loss of righting reflex (LORR) in tadpoles was determined for anesthetic activity; type: functional, organism-based, frog; settings: Tadpole
[3] = molecular target: T1, GABA-A receptor; alpha-1/beta-2/gamma-2; assay: Direct activation of human Gamma-aminobutyric acid A receptor alpha-1-beta-2-gamma-2; type: protein-complex assay
[4] = system: Xenopus laevis; assay: Loss of righting reflex (LORR) in Xenopus laevis tadpoles was determined for anesthetic activity; type: functional, organism-based, frog; settings: Tadpole

Compound	EC50 [1]	EC50 [2]	EC50 [3]	EC50 [4]
Oc1c(C2CCCCC2)cccc1C1CCCCC1	100000 µM			
CC(C)Cc1cccc(CC(C)C)c1O	2.51 µM	0.398 µM	20 µM	
CCc1cccc(CC)c1N=C=S	15.8 µM	158 µM	316 µM	
Oc1ccccc1C1CCCC1	100000 µM			
CCc1cccc(CC)c1N=C=O	25.1 µM	158 µM	251 µM	
CC(C)c1cc(O)c(O)c(C(C)C)c1	39.8 µM	50.1 µM	200 µM	
CCc1cccc(CC)c1Br	20 µM	158 µM	126 µM	
Cc1cccc(C(C)(C)C)c1O	0.501 µM	31.6 µM	20 µM	
CCc1cccc(CC)c1O	12.6 µM	20 µM	126 µM	
CC(C)c1ccccc1O	39.8 µM	126 µM	158 µM	
Cc1cccc(C)c1O	126 µM	63.1 µM	200 µM	
CC(C)(C)c1cc(O)cc(C(C)(C)C)c1	100 µM	100 µM	501 µM	
CC(C)c1cc(I)cc(C(C)C)c1O	10 µM		31.6 µM	2.51 µM
Oc1ccccc1 [PHENOL]	1000 µM	1580 µM		
CC(C)c1cccc(C(C)C)c1O [PROPOFOL]	2 µM	2 µM	10 µM	
COc1cccc(OC)c1O [SYRINGOL]	100000 µM			
